According to ChEMBL document CHEMBL1201862, “PubChem BioAssay data set” (2004):
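Values below derive from 48-hour exposures of cells grown in 96-well plates, with endpoints linearly interpolated between the two concentrations bracketing the appropriate inhibition level. The concentration for 50% growth inhibition is given as GI50.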 Activity calls are given as the source filed them. Cut-off read from the data, not from the text of the source: active = GI50 up to about 1.1 µM and inactive = higher.

What was measured:
Test in all cases: growth of human tumour cells (NCI), 48 h
[1] = tested on: UACC-62
[2] = tested on: NCI-H460
[3] = tested on: MCF7
[4] = tested on: Malme-3M
[5] = tested on: NCI-H226
[6] = tested on: MDA-MB-435
[7] = tested on: SNB-75
[8] = tested on: SK-OV-3
[9] = tested on: SN12C
[10] = tested on: OVCAR-4
[11] = tested on: M14
[12] = tested on: SNB-19
[13] = tested on: Hs-578T
[14] = tested on: SK-MEL-2
[15] = tested on: EKVX
[16] = tested on: T47D
[17] = tested on: KM12
[18] = tested on: NCI-H522
[19] = tested on: NCI-H23
[20] = tested on: HCC 2998
[21] = tested on: ACHN
[22] = tested on: HOP-92
[23] = tested on: U-251
[24] = tested on: SW-620
[25] = tested on: CAKI-1
[26] = tested on: RPMI-8226
[27] = tested on: SR
[28] = tested on: SF-295
[29] = tested on: LOX IMVI
[30] = tested on: PC-3
[31] = tested on: SF-539
[32] = tested on: 786-0
[33] = tested on: SK-MEL-5
[34] = tested on: CCRF-CEM
[35] = tested on: BT-549
[36] = tested on: COLO 205
[37] = tested on: OVCAR-8
[38] = tested on: MDA-N
[39] = tested on: NCI/ADR-RES
[40] = tested on: A498
[41] = tested on: DU-145
[42] = tested on: MOLT-4
[43] = tested on: MDA-MB-231
[44] = tested on: HT-29
[45] = tested on: OVCAR-5
[46] = tested on: UACC-257
[47] = tested on: HOP-62
[48] = tested on: IGROV-1
[49] = tested on: A549
[50] = tested on: OVCAR-3
[51] = tested on: SF-268
[52] = tested on: UO-31
[53] = tested on: HCT-116
[54] = tested on: HCT-15
[55] = tested on: SK-MEL-28
[56] = tested on: K562
[57] = tested on: TK-10
[58] = tested on: RXF 393

Compound: COc1cc(OC)cc(N(C)Cc2cnc3nc(N)nc(N)c3c2C)c1
- GI50 [1]: 0.719 µM (active)
- GI50 [2]: 0.474 µM (active)
- GI50 [3]: 0.92 µM (active)
- GI50 [4]: 0.817 µM (active)
- GI50 [5]: > 41.1 µM (inactive)
- GI50 [6]: 0.759 µM (active)
- GI50 [7]: 0.0571 µM (active)
- GI50 [8]: 13.6 µM (inactive)
- GI50 [9]: 0.929 µM (active)
- GI50 [10]: 20.1 µM (inactive)
- GI50 [11]: 0.652 µM (active)
- GI50 [12]: 12.9 µM (inactive)
- GI50 [13]: > 68.5 µM (inactive)
- GI50 [14]: > 51.5 µM (inactive)
- GI50 [15]: > 47.3 µM (inactive)
- GI50 [16]: 38.3 µM (inactive)
- GI50 [17]: 3.85 µM (inactive)
- GI50 [18]: 2.21 µM (inactive)
- GI50 [19]: 1.25 µM (inactive)
- GI50 [20]: 3.52 µM (inactive)
- GI50 [21]: 0.746 µM (active)
- GI50 [22]: 13.3 µM (inactive)
- GI50 [23]: 0.543 µM (active)
- GI50 [24]: 0.585 µM (active)
- GI50 [25]: 2.04 µM (inactive)
- GI50 [26]: > 22 µM (inactive)
- GI50 [27]: 0.541 µM (active)
- GI50 [28]: 0.535 µM (active)
- GI50 [29]: 1.16 µM (inactive)
- GI50 [30]: 0.565 µM (active)
- GI50 [31]: 0.385 µM (active)
- GI50 [32]: 0.427 µM (active)
- GI50 [33]: 0.615 µM (active)
- GI50 [34]: 2.47 µM (inactive)
- GI50 [35]: > 25.7 µM (inactive)
- GI50 [36]: 12.6 µM (inactive)
- GI50 [37]: 0.741 µM (active)
- GI50 [38]: 0.631 µM (active)
- GI50 [39]: 5.65 µM (inactive)
- GI50 [40]: 18.7 µM (inactive)
- GI50 [41]: 4.71 µM (inactive)
- GI50 [42]: 0.741 µM (active)
- GI50 [43]: 21.3 µM (inactive)
- GI50 [44]: 2.65 µM (inactive)
- GI50 [45]: 0.757 µM (active)
- GI50 [46]: 1.56 µM (inactive)
- GI50 [47]: 0.995 µM (active)
- GI50 [48]: 0.838 µM (active)
- GI50 [49]: 0.421 µM (active)
- GI50 [50]: 9.66 µM (inactive)
- GI50 [51]: 0.745 µM (active)
- GI50 [52]: 5.52 µM (inactive)
- GI50 [53]: 0.358 µM (active)
- GI50 [54]: 1.27 µM

Compound: N=C(N)N/N=C/c1ccc(O)c(C(=O)O)c1
- GI50 [1]: > 100 µM (inactive)
- GI50 [55]: > 100 µM (inactive)
- GI50 [2]: > 100 µM (inactive)
- GI50 [3]: > 100 µM (inactive)
- GI50 [4]: 99.1 µM (inactive)
- GI50 [5]: > 100 µM (inactive)
- GI50 [6]: > 100 µM (inactive)
- GI50 [7]: 3.22 µM (inactive)
- GI50 [8]: > 100 µM (inactive)
- GI50 [56]: > 100 µM (inactive)
- GI50 [10]: > 100 µM (inactive)
- GI50 [11]: > 100 µM (inactive)
- GI50 [12]: > 100 µM (inactive)
- GI50 [13]: > 100 µM (inactive)
- GI50 [14]: > 100 µM (inactive)
- GI50 [16]: > 100 µM (inactive)
- GI50 [17]: > 100 µM (inactive)
- GI50 [18]: > 100 µM (inactive)
- GI50 [19]: > 100 µM (inactive)
- GI50 [20]: > 100 µM (inactive)
- GI50 [57]: > 100 µM (inactive)
- GI50 [21]: > 100 µM (inactive)
- GI50 [22]: > 100 µM (inactive)
- GI50 [23]: > 100 µM (inactive)
- GI50 [24]: > 100 µM (inactive)
- GI50 [25]: > 100 µM (inactive)
- GI50 [26]: > 100 µM (inactive)
- GI50 [27]: > 100 µM (inactive)
- GI50 [28]: > 100 µM (inactive)
- GI50 [29]: > 100 µM (inactive)
- GI50 [30]: > 100 µM (inactive)
- GI50 [31]: > 100 µM (inactive)
- GI50 [32]: > 100 µM (inactive)
- GI50 [33]: > 100 µM (inactive)
- GI50 [34]: > 100 µM (inactive)
- GI50 [35]: > 100 µM (inactive)
- GI50 [36]: > 100 µM (inactive)
- GI50 [37]: > 100 µM (inactive)
- GI50 [38]: > 100 µM (inactive)
- GI50 [39]: > 100 µM (inactive)
- GI50 [40]: > 100 µM (inactive)
- GI50 [41]: > 100 µM (inactive)
- GI50 [42]: > 100 µM (inactive)
- GI50 [43]: > 100 µM (inactive)
- GI50 [44]: 32.3 µM (inactive)
- GI50 [45]: > 100 µM (inactive)
- GI50 [46]: > 100 µM (inactive)
- GI50 [58]: > 100 µM (inactive)
- GI50 [47]: > 100 µM (inactive)
- GI50 [48]: > 100 µM (inactive)
- GI50 [49]: > 100 µM (inactive)
- GI50 [50]: > 100 µM (inactive)
- GI50 [51]: > 100 µM (inactive)
- GI50 [52]: > 100 µM (inactive)
- GI50 [53]: > 100 µM (inactive)
- GI50 [54]: > 100 µM

Compound: Cc1cc2c(c(C(=O)NCC(=O)O)c1)Oc1c(cc(C)cc1C(=O)NCC(=O)O)S2
- GI50 [1]: > 100 µM (inactive)
- GI50 [55]: > 100 µM (inactive)
- GI50 [3]: > 100 µM (inactive)
- GI50 [4]: > 100 µM (inactive)
- GI50 [5]: > 100 µM (inactive)
- GI50 [6]: > 100 µM (inactive)
- GI50 [7]: > 100 µM (inactive)
- GI50 [8]: > 100 µM (inactive)
- GI50 [56]: > 100 µM (inactive)
- GI50 [9]: > 100 µM (inactive)
- GI50 [10]: > 100 µM (inactive)
- GI50 [11]: > 100 µM (inactive)
- GI50 [12]: > 100 µM (inactive)
- GI50 [13]: > 100 µM (inactive)
- GI50 [14]: > 100 µM (inactive)
- GI50 [15]: > 100 µM (inactive)
- GI50 [16]: > 100 µM (inactive)
- GI50 [17]: > 100 µM (inactive)
- GI50 [18]: > 100 µM (inactive)
- GI50 [19]: > 100 µM (inactive)
- GI50 [20]: > 100 µM (inactive)
- GI50 [57]: > 100 µM (inactive)
- GI50 [21]: > 100 µM (inactive)
- GI50 [22]: > 100 µM (inactive)
- GI50 [23]: > 100 µM (inactive)
- GI50 [24]: > 100 µM (inactive)
- GI50 [25]: > 100 µM (inactive)
- GI50 [26]: > 100 µM (inactive)
- GI50 [27]: > 100 µM (inactive)
- GI50 [28]: > 100 µM (inactive)
- GI50 [29]: > 100 µM (inactive)
- GI50 [30]: > 100 µM (inactive)
- GI50 [31]: > 100 µM (inactive)
- GI50 [32]: > 100 µM (inactive)
- GI50 [34]: > 100 µM (inactive)
- GI50 [35]: > 100 µM (inactive)
- GI50 [36]: > 100 µM (inactive)
- GI50 [37]: > 100 µM (inactive)
- GI50 [38]: > 100 µM (inactive)
- GI50 [39]: > 100 µM (inactive)
- GI50 [41]: > 100 µM (inactive)
- GI50 [42]: > 100 µM (inactive)
- GI50 [43]: > 100 µM (inactive)
- GI50 [44]: > 100 µM (inactive)
- GI50 [45]: > 100 µM (inactive)
- GI50 [46]: > 100 µM (inactive)
- GI50 [58]: > 100 µM (inactive)
- GI50 [47]: > 100 µM (inactive)
- GI50 [48]: > 100 µM (inactive)
- GI50 [49]: > 100 µM (inactive)
- GI50 [50]: > 100 µM (inactive)
- GI50 [51]: > 100 µM (inactive)
- GI50 [53]: > 100 µM (inactive)
- GI50 [54]: > 100 µM
